These results are taken from PMC10590419, “Structural and mechanistic insights into the inhibition of respiratory syncytial virus polymerase by a non-nucleoside inhibitor” (Communications Biology, 2023).

Where two headings read alike, the source gives them in different places. Some results are limits rather than exact numbers.

For series [1], the system named is PIV-3 (recombinant JS-derived strain encoding GFP). Format: cell-based, parainfluenza virus type 3.
The target of series [2] is Human RNA polymerase II (Homo sapiens, UniProt P24928+P30876). Description: RNA polymerase II DdRp activity (HeLa nuclear extract). Format: biochemical. The following applies: RNA Pol II.
A short description of series [3]: in vitro. Particulars: rhesus monkey.
Series [4] concerns HMPV (recombinant CAN97-83-derived strain encoding GFP). Kind of series: microbe, parasite or virus in culture. Format: cell-based. The following applies: human metapneumovirus, LLC-MK2.
Series [5] deals with RSV L+P complex (Human respiratory syncytial virus A, UniProt P28887). Kind of series: Surface plasmon resonance assay. Format: binding, Human RSV (strain A2). Particulars: SPR, 37°C. For orientation: In SPR one partner is held on a chip, and binding of the other changes the refractive index at the surface.
Chain of RSV L+P complex (P03421 whole entry): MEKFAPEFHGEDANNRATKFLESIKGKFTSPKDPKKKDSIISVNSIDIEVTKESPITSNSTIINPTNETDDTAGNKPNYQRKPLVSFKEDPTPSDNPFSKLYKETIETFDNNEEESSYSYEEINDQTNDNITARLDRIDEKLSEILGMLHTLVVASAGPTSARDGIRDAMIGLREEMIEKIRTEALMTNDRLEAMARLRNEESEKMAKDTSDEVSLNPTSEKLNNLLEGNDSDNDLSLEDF
Chain of RSV L+P complex (P28887 whole entry): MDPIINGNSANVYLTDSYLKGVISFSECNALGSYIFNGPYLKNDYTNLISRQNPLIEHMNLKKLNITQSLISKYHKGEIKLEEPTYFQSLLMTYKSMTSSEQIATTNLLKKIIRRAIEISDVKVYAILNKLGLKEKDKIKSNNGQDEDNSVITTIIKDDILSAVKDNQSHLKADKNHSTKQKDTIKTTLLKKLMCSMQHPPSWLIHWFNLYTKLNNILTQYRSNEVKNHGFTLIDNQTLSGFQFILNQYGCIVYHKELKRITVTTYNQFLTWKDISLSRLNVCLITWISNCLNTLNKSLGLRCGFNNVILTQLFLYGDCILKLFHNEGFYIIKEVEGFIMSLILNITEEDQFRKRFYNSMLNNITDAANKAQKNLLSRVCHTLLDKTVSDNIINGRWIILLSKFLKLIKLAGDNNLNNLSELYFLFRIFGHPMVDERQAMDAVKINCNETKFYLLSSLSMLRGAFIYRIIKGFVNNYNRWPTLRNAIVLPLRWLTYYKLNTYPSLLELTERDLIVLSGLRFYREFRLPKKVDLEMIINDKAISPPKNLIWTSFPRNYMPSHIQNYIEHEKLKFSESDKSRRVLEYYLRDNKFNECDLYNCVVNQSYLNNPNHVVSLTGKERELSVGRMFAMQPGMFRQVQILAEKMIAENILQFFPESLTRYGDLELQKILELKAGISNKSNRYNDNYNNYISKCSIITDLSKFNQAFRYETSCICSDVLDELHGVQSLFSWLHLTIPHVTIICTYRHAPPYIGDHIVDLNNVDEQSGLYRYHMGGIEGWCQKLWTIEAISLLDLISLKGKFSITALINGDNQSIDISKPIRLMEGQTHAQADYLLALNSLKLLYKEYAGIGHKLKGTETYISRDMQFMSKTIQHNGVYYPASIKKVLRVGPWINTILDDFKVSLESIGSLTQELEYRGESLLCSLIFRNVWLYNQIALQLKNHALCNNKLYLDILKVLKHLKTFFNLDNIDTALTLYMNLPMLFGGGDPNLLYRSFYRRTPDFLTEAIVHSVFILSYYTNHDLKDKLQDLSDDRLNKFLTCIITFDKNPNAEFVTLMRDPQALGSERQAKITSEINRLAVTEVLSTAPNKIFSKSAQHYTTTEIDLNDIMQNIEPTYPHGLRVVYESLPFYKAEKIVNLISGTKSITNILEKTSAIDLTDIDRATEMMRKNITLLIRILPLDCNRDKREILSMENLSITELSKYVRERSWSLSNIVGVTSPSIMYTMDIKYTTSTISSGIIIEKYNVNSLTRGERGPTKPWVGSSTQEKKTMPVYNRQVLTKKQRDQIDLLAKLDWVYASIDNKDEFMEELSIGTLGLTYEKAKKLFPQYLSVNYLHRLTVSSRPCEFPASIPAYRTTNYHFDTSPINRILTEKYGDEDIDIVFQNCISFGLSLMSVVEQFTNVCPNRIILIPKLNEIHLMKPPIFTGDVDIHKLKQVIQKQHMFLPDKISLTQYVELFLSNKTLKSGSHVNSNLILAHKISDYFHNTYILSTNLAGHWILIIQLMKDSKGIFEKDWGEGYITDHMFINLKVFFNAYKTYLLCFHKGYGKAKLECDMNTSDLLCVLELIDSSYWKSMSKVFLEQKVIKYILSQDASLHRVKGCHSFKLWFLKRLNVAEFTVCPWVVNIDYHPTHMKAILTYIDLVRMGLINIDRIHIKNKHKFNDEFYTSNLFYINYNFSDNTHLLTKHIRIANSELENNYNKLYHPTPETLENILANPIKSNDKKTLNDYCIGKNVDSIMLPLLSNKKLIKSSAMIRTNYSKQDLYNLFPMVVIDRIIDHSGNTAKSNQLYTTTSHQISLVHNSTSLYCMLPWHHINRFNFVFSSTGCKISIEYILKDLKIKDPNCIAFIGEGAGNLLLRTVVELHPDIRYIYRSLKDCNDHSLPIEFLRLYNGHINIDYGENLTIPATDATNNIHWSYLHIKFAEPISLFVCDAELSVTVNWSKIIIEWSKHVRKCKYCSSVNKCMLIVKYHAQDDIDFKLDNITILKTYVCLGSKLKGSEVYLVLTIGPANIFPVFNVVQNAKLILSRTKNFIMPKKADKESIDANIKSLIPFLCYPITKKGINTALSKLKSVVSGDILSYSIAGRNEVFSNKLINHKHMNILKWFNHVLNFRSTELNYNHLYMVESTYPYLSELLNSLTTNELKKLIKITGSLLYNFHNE
The test system of series [6] is RSV A2 replicon in APC-126 cells. Kind of series: RSV subgenomic replicon (minireplicon) assay, luciferase. Format: cell-based. Particulars: human respiratory syncytial virus, APC-126, 72 h, read-out: Median EC50. Here is the method:
The RSV subgenomic replicon system was licensed from Apath (Apath, NY, USA)[49],[50]. The BHK-derived cell line (APC-126) containing the stable RSV A2 replicon was cultured in DMEM/Hams F-12 medium supplemented with 10% (v/v) FBS (Gibco), 1% (v/v) penicillin (10,000 units/mL) and streptomycin (10,000 µg/mL) solution (Gibco), 1% (v/v) MEM non-essential amino acids solution (Gibco), 5% (v/v) Tryptose Phosphate Broth solution (29.5 g/l) (Sigma-Aldrich) and 10 µg/ml of blasticidin solution (Invivogen). Cells were maintained at 37 °C in a humidified 5% CO2 atmosphere. 5000 cells were plated in 96-well clear plates (Corning) in 100 µl/well of medium. […] Cell viability (CC50 and CC90) was measured with a CellTiter-Glo cell proliferation assay (Promega, 100 µl/well of reagent). Results were expressed as EC50 and EC90 values as well as CC50 and CC90 values.
(In general: A replicon is a self-replicating genome or part of one, used to study replication in cells.)

In series [7] the test system is rVSV (Indiana strain-derived, luciferase reporter). Description: microbe, parasite or virus in culture. Format: cell-based, vesicular stomatitis virus.
Series [8] has as its target recombinant RSV L+P (Human respiratory syncytial virus A, UniProt P28887). Kind of series: De novo RNA synthesis assay, recombinant RSV L+P, Tr14 template. The class given is biochemical, Human RSV (strain A2). Here is the method:
The reactions were performed as described by Cressey et al.[22]. […] The reactions were incubated at 30 °C for 1 h and then stopped by adding gel loading buffer containing 90% formamide, 50 mM EDTA, 0.05% Xylene Cyanol and Bromophenol Blue. Samples were denatured at 95 °C for 5 min and run on a 22.5% polyacrylamide urea sequencing gel at 80 W with radiolabeled RNA markers generated via the T7 DNA dependent RNA polymerase (DdRp). The gel was dried, exposed to a phosphor-screen, scanned on a Typhoon scanner (GE Healthcare), and quantified using ImageQuant (GE Healthcare). Bands were identified as extension products or initiation products by the 11-nucleotide ppp[…] and 2-nucleotide pppGA RNA markers, respectively. Radiolabeled RNA markers corresponding to pppGA, ppp[…], and intermediates were generated utilizing a reaction by T7 DNA-dependent RNA polymerase (AM2718, Ambion)[53]. DNA oligos: 5’-[…]-3’ (T7 promoter primer) and 5’-[…]-3’ (T7 promoter primer + target sequence template) were synthesized at IDT. Due to a mechanistic idiosyncrasy in T7 DdRp, an additional Adenosine residue was placed between the T7 promoter and the target sequence in the template. Each 40 µl reaction contained 5 mM ATP, 5 mM CTP, 5 mM GTP, 100 nM annealed DNA primer and template, 20 U T7 DdRp, 1x T7 DdRp Buffer (40 mM Tris pH 7.8, 20 mM NaCl, 6 mM MgCl2, 2 mM Spermidine HCl, 10 mM DTT), and 20 µCi of [α-^33P]ATP. Reactions were incubated at 30 °C for 5 h. Then 1 µl of reconstituted DNase I (Ambion) was added and incubated for an additional 10 min at 37 °C. This reaction was quenched with the addition of 60 µl gel loading buffer.
Supplementary Figure 4. Inhibition of de novo initiation and extension of RSV L-P RNA synthesis by JNJ-8003. a. reaction scheme. b. a sequencing gel image showing RNA products […]
contained 10 nM RSV L-P, 2 μM RNA template (Tr14), 500 μM GTP, 10 μM ATP, 170 nM [α-33P]ATP, so RNA synthesis started from +3 site and paused with a major 11-mer product. c.
Data was from the quantitation results of the gel image in b. d. The reactions […]
Data points indicate the mean, and error bars depict the SD of three technical replicates. e. a sequencing gel image showing RNA products synthesized by RSV L-P along with no enzyme control. Reaction condition was same as in b with no compound added. […]

Where [9] appears, read: repeat in triplicate, 0.093 nM to 200 nM.

Broadly, the IC50 is the concentration needed to halve the response being measured. By EC50 is commonly meant the concentration needed to bring the measured effect to its halfway point.

Chain of recombinant RSV L+P (P28887 whole entry): as above
Chain of recombinant RSV L+P (P03421 whole entry, further chain): as the sequence (P03421 whole entry) above

On to `COc1cc(C(=O)NC[C@](O)(c2cc(C(C)(C)O)c(F)c(-c3ccc(F)cc3)n2)C(F)(F)F)cc2cc(C)nnc12` [JNJ-8003], for which the “inhibition (in words)” value in series [1] and in series [7] was “negligible inhibition” in each case. For the same compound, the concentration for half-maximal inhibition (IC50) in series [2] was above 100000 nM; in series [8] (9.3 pM to 200 μM, read-out: IC50, 11-mer product) it was 4.7 nM; in series [8] (+3 site, tr-14, 9.3 pM to 200 μM, read-out: IC50, de novo pppGpA dinucleotide formation), 5.1 nM; in series [8] (repeat in triplicate, 0.093 nM to 200 nM, read-out: IC50, 11-mer product) it was 3.6 nM; in series [8] (repeat in triplicate, 0.093 nM to 200 nM, read-out: IC50, de novo pppGpA formation), 2.3 nM. The CC50 in series [3] (Median CC50, LLC-MK2, parallel to HMPV assay) is 14000 nM; in series [3] (Median CC50, LLC-MK2, parallel to PIV-1 assay), 18000 nM; in series [3] (Median CC50, LLC-MK2, parallel to PIV-3 assay), 19000 nM. Moreover, the concentration giving a half-maximal response (EC50) in series [4] is 88 nM; in series [6], 0.15 nM; in series [7] (Vesicular stomatitis virus, A549, read-out: Median EC50), above 25000 nM. Moreover, the off-rate in series [5] came to 0.0000181 s⁻¹. For the same compound, in series [5], the on-rate was 2.16e+06 M⁻¹ s⁻¹. Further, the “maximal inhibition, 11-mer product” value came to 99% in series [8] (9.3 pM to 200 μM) and 100% in series [8] (setting [9]). In addition, the “maximal inhibition, de novo pppGpA formation” value in series [8] (9.3 pM to 200 μM) turned out to be 65%; in series [8] (setting [9]), 69%.
